Measured values: patent US8987195B2 (priority 2012, dated 2015)
pEC50: −log10 of the molar value. Read-outs that look alike come from different tables or passages of the source.

Key:
HCV genotype 1b replicon = assay: HCV replicon assay, genotype 1b replicon EC50; format: cell-based, Hepatitis C virus; conditions: genotype 1b replicon, read-out: EC50 [gt-1b]
Method: Measuring Compound Inhibitory Potency (Genotype 1b Replicon EC50 (nM))
Measurement of inhibition by compounds was performed using the HCV replicon system. Several different replicons encoding different HCV genotypes or mutations were used. In addition, potency measurements were made using different formats of the replicon assay, including different ways of measurements and different plating formats. See Jan M. Vrolijk et al., A replicons-based bioassay for the measurement of interferons in patients with chronic hepatitis C, 110 J. VIROLOGICAL METHODS 201 (2003); Steven S. Carroll et al., Inhibition of Hepatitis C Virus RNA Replication by 2′-Modified Nucleoside Analogs, 278(14) J. BIOLOGICAL CHEMISTRY 11979 (2003). However, the underlying principles are common to all of these determinations, and are outlined below.
Stable neomycin phosphotransferase encoding replicon-harboring cell lines were used, so all cell lines were maintained under G418 selection prior to the assay. In some cases the cell lines encoded a luciferase:Neo^r fusion and could be assayed either directly by determination of RNA copy number, or indirectly through measurement of the luciferase activity.
To initiate an assay, replicon cells were plated in the presence of a dilution series of test compound in the absence of G418. Typically, the assays were performed in a 96-well plate format for manual operation, or a 384 well plate in an automated assay. Replicon cells and compound were incubated for 24-48 hours, depending on the assay. At the end of the assay, cells are washed free of media and compound and then lysed. For direct quantitation, RNA levels were measured by ^32P-probe hybridization and protection, or in a TAQMAN based assay and normalized to cellular cyclophilin A RNA levels. In some cases, luciferase activity was measured using a conventional luciferase assay. In all cases EC50 determinations were calculated as a percent of a DMSO control by fitting the data to a four parameter fit function.

[1] = target: HCV NS3/4A protease genotype 1b (Hepatitis C virus genotype 1b, UniProt P26663); assay: HCV NS3/4A protease time-resolved fluorescence (TRF) assay, Ki against genotype 1b; format: biochemical; conditions: IC50 [gt-1b] (nM), NS3/4A genotype 1b, enzyme 0.2 nM
Procedure, shortened: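 Ki was converted from fitted IC50 using IC50=Ki(1+[S]/KM) and 25 nM substrate. Protease (genotype 1b 0.2 nM, A156T 0.4 nM, 3a 0.025 nM) and compound were pre-mixed 30 min in pH 7.5 HEPES/NaCl/glycerol/DTT buffer. Cleavage then proceeded 2.5 h at room temperature, detected by time-resolved europium fluorescence (340/615 nm).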

Structure (SMILES) | pEC50 (HCV genotype 1b replicon; Hepatitis C virus) | other results
COc1ccc2c3c(c(C4CC4)nc2c1)O[C@]1(CC3)C[C@H]2C(=O)N[C@]3(C(=O)NS(=O)(=O)C4(C)CC4)C[C@H]3/C=C\CCCCC[C@H](NC(=O)OCC(C)C)C(=O)N2C1 [Example 136, 2-methylpropyl [(2R,6S,12Z,13aS,14aR,16aS)-5′-cyclopropyl-8′-methoxy-14a-{[(1-methylcyclopropyl)sulfonyl]carbamoyl}-5,16-dioxo-1,1′,2′,5,6,7,8,9,10,11,13a,14,14a,15,16,16a-hexadecahydrospiro[cyclopropa[e]pyrrolo[1,2-a][1,4]diazacyclopentadecine-2,3′-pyrano[2,3-c]quinolin]-6-yl]carbamate] | – | pEC50 (HCV genotype 1b replicon; Hepatitis C virus, K+ salt): 8.67; IC50 ([1]; K+ salt): 0.019 nM
CCc1ccc2nc(C)c3c(c2c1)C(F)C[C@]1(C[C@H]2C(=O)N[C@]4(C(=O)NS(=O)(=O)C5(C)CC5)C[C@H]4/C=C\CCCCC[C@H](NC(=O)OC(C)(C)C(F)(F)F)C(=O)N2C1)O3 (single isomer, unassigned) [Example 346] | – | pEC50 (HCV genotype 1b replicon): 8.37; IC50 [1]: 0.012 nM
Cc1nc2ccccc2c2c1O[C@]1(CC2)C[C@H]2C(=O)N[C@]3(C(=O)NS(=O)(=O)C4(C)CC4)C[C@H]3/C=C\CCCCC[C@H](NC(=O)OC3CCCCC3)C(=O)N2C1 [Example 143, cyclohexyl [(2R,6S,12Z,13aS,14aR,16aS)-5′-methyl-14a-{[(1-methylcyclopropyl)sulfonyl]carbamoyl}-5,16-dioxo-1,1′,2′,5,6,7,8,9,10,11,13a,14,14a,15,16,16a-hexadecahydrospiro[cyclopropa[e]pyrrolo[1,2-a][1,4]diazacyclopentadecine-2,3′-pyrano[2,3-c]quinolin]-6-yl]carbamate] | – | pEC50 (HCV genotype 1b replicon; Hepatitis C virus, K+ salt): 8.93; IC50 ([1]; K+ salt): 0.009 nM
COc1ccc2nc(C)c3c(c2c1)[C@@H](F)C[C@]1(C[C@H]2C(=O)N[C@]4(C(=O)NS(=O)(=O)C5(C)CC5)C[C@H]4/C=C\CCCCC[C@H](NC(=O)OC(C)(C)C)C(=O)N2C1)O3 [Example 354, tert-butyl [(1′S,2S,6S,12Z,13aS,14aR,16aS)-1′-fluoro-9′-methoxy-5′-methyl-14a-{[(1-methylcyclopropyl)sulfonyl]carbamoyl}-5,16-dioxo-1,1′,2′,5,6,7,8,9,10,11,13a,14,14a,15,16,16a-hexadecahydrospiro[cyclopropa[e]pyrrolo[1,2-a][1,4]diazacyclopentadecine-2,3′-pyrano[2,3-c]quinolin]-6-yl]carbamate] | 6.99 | IC50 [1]: 0.169 nM
Cc1nc2ccccc2c2c1O[C@]1(CC2)C[C@H]2C(=O)N[C@]3(C(=O)NS(=O)(=O)C4(C)CC4)C[C@H]3/C=C\CCCCC[C@H](NC(=O)CC(F)(F)F)C(=O)N2C1 [Example 84, (2R,6S,12Z,13aS,14aR,16aS)-5′-methyl-N-[(1-methylcyclopropyl)sulfonyl]-5,16-dioxo-6-[(3,3,3-trifluoropropanoyl)amino]-1,1′,2′,6,7,8,9,10,11,13a,14,15,16,16a-tetradecahydrospiro[cyclopropa[e]pyrrolo[1,2-a][1,4]diazacyclopentadecine-2,3′-pyrano[2,3-c]quinoline]-14a(5H)-carboxamide] | 8.11 | –
CC1(OC(=O)N[C@H]2CCCCC/C=C\[C@@H]3C[C@@]3(C(=O)NS(=O)(=O)C3(C)CC3)NC(=O)[C@@H]3C[C@]4(CCc5c(c(-c6cccc(F)c6)nc6ccccc56)O4)CN3C2=O)CC1 [Example 22, 1-Methylcyclopropyl (2R,6S,13aS,14aR,16aS,Z)-5′-(3-fluorophenyl)-14a-(1-methylcyclopropylsulfonylcarbamoyl)-5,16-dioxo-1′,2′,3,5,6,7,8,9,10,11,13a,14,14a,15,16, 16a-hexadecahydro-1H-spiro[cyclopropa[e]pyrrolo[1,2-a][1,4]diazacyclopentadecine-2,3′-pyrano[2,3-c]quinoline]-6-ylcarbamate] | 8.38 | –
Cc1nc2ccccc2c2c1O[C@]1(CC2)C[C@H]2C(=O)N[C@]3(C(=O)NS(=O)(=O)C4(C)CC4)C[C@H]3/C=C\CCCCC[C@H](NC(=O)NC(C)(C)C)C(=O)N2C1 [Example 76, (2R,6S,12Z,13aS,14aR,16a5)-6-[(tert-butylcarbamoyl)amino]-5′-methyl-N-[(1-methylcyclopropyl)sulfonyl]-5,16-dioxo-1,1′,2′,6,7,8,9,10,11,13a,14,15,16,16a-tetradecahydrospiro[cyclopropa[e]pyrrolo[1,2-a][1,4]diazacyclopentadecine-2,3′-pyrano[2,3-c]quinoline]-14a(5H)-carboxamide] | 7.93 | –
CC(C)(C)OC(=O)N[C@H]1CCCCC/C=C\[C@@H]2C[C@@]2(C(=O)NS(=O)(=O)C2(C)CC2)NC(=O)[C@@H]2C[C@]3(CCc4c(c(-c5cccc(F)c5)nc5ccccc45)O3)CN2C1=O [Example 13, tert-Butyl (2R,6S,13aS,14aR,16aS,Z)-5′-(3-fluorophenyl)-14a-(1-methylcyclopropylsulfonylcarbamoyl)-5,16-dioxo-1′,2′,3,5,6,7,8,9,10,11,13a,14,14a,15,16,16a-hexadecahydro-1H-spiro[cyclopropa[e]pyrrolo[1,2-a][1,4]diazacyclopentadecine-2,3′-pyrano[2,3-c]quinoline-]-6-ylcarbamate] | 8.37 | –
CC1(S(=O)(=O)NC(=O)[C@@]23C[C@H]2/C=C\CCCCC[C@H](NC(=O)NC2CCCC2)C(=O)N2C[C@@]4(CCc5c(c(-c6cccc(F)c6)nc6ccccc56)O4)C[C@H]2C(=O)N3)CC1 [Example 82, (2R,6S,12Z,13aS,14aR,16aS)-6-[(cyclopentylcarbamoyl)amino]-5′-(3-fluorophenyl)-N-[(1-methylcyclopropyl)sulfonyl]-5,16-dioxo-1,1′,2′,6,7,8,9,10,11,13a,14,15,16,16a-tetradecahydrospiro[cyclopropa[e]pyrrolo[1,2-a][1,4]diazacyclopentadecine-2,3′-pyrano[2,3-c]quinoline]-14a(5H)-carboxamide] | 8.37 | –
CC1(S(=O)(=O)NC(=O)[C@@]23C[C@H]2/C=C\CCCCC[C@H](NC(=O)OC2CCCC2)C(=O)N2C[C@@]4(CCc5c(c(-c6cccc(F)c6)nc6ccccc56)O4)C[C@H]2C(=O)N3)CC1 [Example 81, cyclopentyl [(2R,6S,12Z,13aS,14aR,16aS)-5′-(3-fluorophenyl)-14a-{[(1-methylcyclopropyl)sulfonyl]carbamoyl}-5,16-dioxo-1,1′,2′,5,6,7,8,9,10,11,13a,14,14a,15,16,16a-hexadecahydrospiro[cyclopropa[e]pyrrolo[1,2-a][1,4]diazacyclopentadecine-2,3′-pyrano[2,3-c]quinolin]-6-yl]carbamate] | 8.88 | –
Cc1ccc2nc(C)c3c(c2c1)CC[C@]1(C[C@H]2C(=O)N[C@]4(C(=O)O)C[C@H]4/C=C\CCCCC[C@H](NC(=O)OC(C)(C)C)C(=O)N2C1)O3 [Example 86, (2R,6S,12Z,13aS,14aR,16aS)-6-[(tert-butoxycarbonyl)amino]-5′,9′-dimethyl-5,16-dioxo-1,1′,2′,6,7,8,9,10,11,13a,14,15,16,16a-tetradecahydrospiro[cyclopropa[e]pyrrolo[1,2-a][1,4]diazacyclopentadecine-2,3′-pyrano[2,3-c]quinoline]-14a(5H)-carboxylic acid] | < 7.00 | –
CC(C)(C)OC(=O)N[C@H]1CCCCC/C=C\[C@@H]2C[C@@]2(C(=O)NS(=O)(=O)C2(C)CC2)NC(=O)[C@@H]2C[C@@]3(CCc4c(c(-c5cccc(F)c5)nc5ccccc45)O3)CN2C1=O [Example 14, tert-Butyl (2S,6S,13aS,14aR,16aS,Z)-5′-(3-fluorophenyl)-14a-(1-methylcyclopropylsulfonylcarbamoyl)-5,16-dioxo-1′,2′,3,5,6,7,8,9,10,11,13a,14,14a,15,16,16a-hexadecahydro-1H-spiro[cyclopropa[e]pyrrolo[1,2-a][1,4]diazacyclopentadecine-2,3′-pyrano[2,3-c]quinoline]-6-ylcarbamate] | 8.19 | –
CC1(S(=O)(=O)NC(=O)[C@@]23C[C@H]2/C=C\CCCCC[C@H](NC(=O)CC(F)(F)F)C(=O)N2C[C@@]4(CCc5c(c(-c6cccc(F)c6)nc6ccccc56)O4)C[C@H]2C(=O)N3)CC1 [Example 24, (2R,6S,13aS,14aR,16aS,Z)-5′-(3-Fluorophenyl)-N-(1-methylcyclopropylsulfonyl)-5,16-dioxo-6-(3,3,3-trifluoropropanamido)-1′,2′,3,5,6,7,8,9,10,11,13a,14,14a,15,16, 16a-hexadecahydro-1H-spiro[cyclopropa[e]pyrrolo[1,2-a][1,4]diazacyclopentadecine-2,3′-pyrano[2,3-c]quinoline]-14a-carboxamide] | 8.23 | –
